Results from PubChem BioAssay (NCI).
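Cells were grown in 96-well plates and exposed to each compound for 48 hours at five concentrations; endpoints were interpolated linearly between bracketing concentrations, or set to the highest concentration if not reached. TGI: concentration producing complete growth inhibition.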

Columns and labels:
Assay in all cases: NCI-60 cell line screen, 48 h
IGROV1 ovarian = system: IGROV1 ovarian
HOP-92 NSCLC = system: HOP-92 NSCLC
M14 melanoma = system: M14 melanoma
TK-10 renal = system: TK-10 renal
BT-549 breast = system: BT-549 breast
HCT-15 colon = system: HCT-15 colon
HOP-62 NSCLC = system: HOP-62 NSCLC
ACHN renal = system: ACHN renal
OVCAR-5 ovarian = system: OVCAR-5 ovarian
OVCAR-3 ovarian = system: OVCAR-3 ovarian

Row | Structure (SMILES) | TGI (IGROV1 ovarian) | TGI (HOP-92 NSCLC) | TGI (M14 melanoma) | TGI (TK-10 renal) | TGI (BT-549 breast) | TGI (HCT-15 colon) | TGI (HOP-62 NSCLC) | TGI (ACHN renal) | TGI (OVCAR-5 ovarian) | TGI (OVCAR-3 ovarian)
1 | O=[N+]([O-])c1ccc2c(N=Nc3ccc4ccccc4c3O)c(O)cc(S(=O)(=O)O)c2c1 | > 61.9 µM | > 100 µM | 32.4 µM | > 100 µM | > 100 µM | > 100 µM | 99.7 µM | 50.3 µM | > 100 µM | 99.5 µM
2 | CCOC(=O)c1cc([N+](=O)[O-])cc([N+](=O)[O-])c1Sc1ncnc2nc[nH]c12 | 6.13 µM | 2.52 µM | 2.66 µM | 9.55 µM | 8.59 µM | 19.7 µM | 24.5 µM | 4.17 µM | 27.6 µM | 2.45 µM
3 | CCSc1[nH]c(NC(=NC(C)C)NC(=O)c2ccccc2)c(C(N)=O)c1C(N)=O | > 10 µM | > 10 µM | > 10 µM | > 10 µM | – | > 10 µM | – | – | – | –
4 | O=C1c2c(F)c(F)c(F)c(F)c2SC2=Nc3cccc4cccc(c34)N12 | 24.1 µM | 6.7 µM | 13.1 µM | 26.1 µM | 23.9 µM | 14.8 µM | 27.2 µM | 16.8 µM | 30.9 µM | 7.58 µM
5 | Cc1cc2nc(CC(C(F)(F)F)C(F)(F)F)oc2cc1C | 10.1 µM | 28.9 µM | 4.72 µM | 39.7 µM | 6.65 µM | 26.8 µM | 17.2 µM | 20.7 µM | 25.7 µM | 14.2 µM
6 | O=P(Nc1cccc(Cl)c1)(Oc1ccccc1)N(CCCl)CCCl (stereo not given) | 30.4 µM | 24.7 µM | 28.6 µM | 30.6 µM | – | 28.7 µM | 31.1 µM | 47.3 µM | 28.8 µM | 35.7 µM
7 | COc1ccc2nc3c([N+](=O)[O-])ccc(NCCCN(C)C)c3c(N)c2c1 | 2.85 µM | 3.73 µM | 3.61 µM | 3.46 µM | – | 2.62 µM | 3.89 µM | 2.59 µM | 2.75 µM | 3 µM
8 | CC(C)(/C=N/O)/[N+]([O-])=C/c1ccccc1 | > 100 µM | > 100 µM | > 100 µM | > 100 µM | – | > 100 µM | > 100 µM | > 100 µM | > 100 µM | > 100 µM
9 | C[C@]12CCC(=O)C=C1CC[C@@H]1C2CC[C@@]2(C)C1CC[C@@H]2OC(=O)C12OC1CCC2=O (stereo not given in full) | 23.6 µM | 37.2 µM | 32.9 µM | 35.9 µM | – | 30.7 µM | 70 µM | 29.3 µM | 33.9 µM | 32.9 µM
10 | COc1ccc(N2C(=O)C(=O)C3(CCCCC3)C2=O)c(OC)c1OC | – | – | > 100 µM | > 100 µM | > 100 µM | > 100 µM | – | > 100 µM | > 100 µM | > 100 µM
11 | COC(=O)C1Cc2c([nH]c3ccccc23)-c2[nH]c3ccccc3c2CC(NC(C)=O)C(=O)N2CCCC2C(=O)N1 (stereo not given) | > 100 µM | – | – | > 100 µM | – | > 100 µM | > 100 µM | > 100 µM | > 100 µM | > 100 µM
12 | COc1ccc(Oc2nc3c(N)cc(C(F)(F)F)cc3nc2-c2ccccc2)cc1 | 43.5 µM | > 100 µM | 41.3 µM | > 100 µM | > 100 µM | > 100 µM | 49.5 µM | > 100 µM | – | –
13 | CCC1OC2C(CC=C(C)C)=C3OC(C)(O)C(C)(CC)C(=O)C3=C3OC(=O)C=C1C32 (stereo not given) | – | 71.2 µM | > 100 µM | > 100 µM | 49.5 µM | > 100 µM | – | 94.6 µM | > 100 µM | –
14 | COc1c(C)c(C/C=C(\C)CCCCO)c(OC)c2ccccc12 | > 100 µM | 80.4 µM | > 100 µM | > 100 µM | > 100 µM | > 100 µM | – | > 100 µM | > 100 µM | > 100 µM
15 | Cc1ccc(O)cc1 (tested in a mixture with another compound) | > 100 µM | – | > 100 µM | > 100 µM | > 100 µM | > 100 µM | > 100 µM | > 100 µM | > 100 µM | > 100 µM
16 | COC(=O)CC1NC(=O)C1C(C)(OC)OC (stereo not given) | > 100 µM | – | > 100 µM | > 100 µM | – | > 100 µM | > 100 µM | > 100 µM | – | > 100 µM
17 | COC(=O)C1CCCN1C(=O)OC(C)(C)C (stereo not given) | > 100 µM | – | – | > 100 µM | > 100 µM | > 100 µM | > 100 µM | > 100 µM | > 100 µM | > 100 µM
18 | CCOC(=O)C1=C(O)c2ccc(OC)cc2C(=O)C1=O | > 100 µM | > 100 µM | > 100 µM | > 100 µM | – | > 100 µM | > 100 µM | > 100 µM | > 100 µM | > 100 µM
19 | O=C1CCc2ccccc2O1 | > 100 µM | > 100 µM | – | > 100 µM | – | > 100 µM | > 100 µM | > 100 µM | > 100 µM | > 100 µM
20 | NNC(=S)NN/C=C(\C=Nc1ccccc1)[N+](=O)[O-] | > 100 µM | > 100 µM | > 100 µM | > 100 µM | – | – | > 100 µM | > 100 µM | > 100 µM | > 100 µM
21 | CN(C)CCNC(=O)c1cccc2[nH]c(-c3ccc(Cl)cc3)nc12 | 25.8 µM | 17 µM | – | – | – | 19.9 µM | 22.5 µM | – | 26.4 µM | 27.7 µM
22 | Cc1sc2nc3n(c(=O)c2c1C)N=C(c1ccccc1)CS3 | > 100 µM | > 100 µM | – | > 100 µM | > 100 µM | > 100 µM | > 100 µM | > 100 µM | > 100 µM | > 100 µM
23 | Cc1cc2c(cc1-c1cc3c(cc1C)C(C(C)C)=C(O)C(=O)/C3=C\Nc1ccccn1)/C(=C/Nc1ccccn1)C(=O)C(O)=C2C(C)C | > 100 µM | > 100 µM | > 100 µM | > 100 µM | – | > 100 µM | – | > 100 µM | > 100 µM | > 100 µM
24 | O=C(CBr)NCCc1c[nH]c2ccccc12 | 4.22 µM | 4.88 µM | 3.24 µM | 3.37 µM | 3.83 µM | 4.36 µM | – | 3.2 µM | 3.47 µM | 4.09 µM
